Measurements: publication PMC12251549, “Engineering a Radiohybrid PSMA Ligand with an Albumin-Binding Moiety and Pharmacokinetic Modulation via an Albumin-Binding Competitor for Radiotheranostics” (Molecules, 2025)

Legend:
[1] = Biodistribution with post-administration of albumin-binding competitor IPBA; format: in vivo, normal mice (ddY); conditions: normal mice, IPBA at 1 h postinjection, 10 molar equivalent of blood albumin; except in the kidney
Description: To evaluate the effects of an albumin-binding competitor (sodium salt of IPBA) in normal mice, [^125I]5 and [^211At]6 were intravenously co-administered. At 1 h postinjection of the radiolabeled compounds, IPBA (3.4 mg, 11 µmol) dissolved in saline at a 10 molar equivalent of blood albumin was administered. Mice were sacrificed at 65 min, 70 min, 2 h, 4 h, 12 h, and 24 h postinjection of [^125I]5 and [^211At]6. Tissues of interest were treated, and the radioactivity was measured in the same manner as above. Data are also shown as %ID/g or %ID.

[2] = Biodistribution after intravenous co-injection of [125I]5 and [67Ga]Ga-PSMA-617 (Table S1); format: in vivo, normal mice (ddY); conditions: normal mice; for Biodistribution of radioactivity: Blood / Biodistribution of radioactivity: Bone / Biodistribution of radioactivity: Brain / Biodistribution of radioactivity: Heart / Biodistribution of radioactivity: Kidney / Biodistribution of radioactivity: L. Intestine / Biodistribution of radioactivity: Liver / Biodistribution of radioactivity: Lung / Biodistribution of radioactivity: Muscle / Biodistribution of radioactivity: Neck / Biodistribution of radioactivity: Pancreas / Biodistribution of radioactivity: S. Intestine / Biodistribution of radioactivity: Spleen / Biodistribution of radioactivity: Stomach: i.v.
Description: [^67Ga]Ga-PSMA-617 (37 kBq) and [^125I]5 (37 kBq) or [^125I]5 (37 kBq) and [^211At]6 (37 kBq) were intravenously co-administered into three or four normal mice at each timepoint (6 weeks male ddY mice, 28–30 g, Japan SLC, Inc., Hamamatsu, Japan). Mice were sacrificed at 10 min, 1 h, 4 h, and 24 h ([^67Ga]Ga-PSMA-617 and [^125I]5) or at 10 min, 1 h, 4 h, 12 h, and 24 h ([^125I]5 and [^211At]6) postinjection of the radiolabeled compounds. Tissues of interest were removed and weighed, and the radioactivity of ^67Ga and ^125I and ^125I and ^211At were determined with an auto well gamma counter (ARC-8001) and corrected for background radiation as described in the Cellular Uptake Experiments Section. To determine the amount and routes of the radioactivity excreted from the body for 24 h after the injection of radiolabeled compounds, mice were housed in metabolic cages (METABOLICA, SUGIYAMA-GEN Co., Ltd., Tokyo, Japan). Data are shown as the percentage of injected dose per gram of tissues (%ID/g) or %ID.

[3] = system: PSMA-expressing LNCaP cells; experiment: Cellular uptake and internalization in LNCaP cells, blocking with 2-PMPA; format: cell-based; conditions: 2-PMPA 100 µM
Description: Cellular uptake experiments were performed according to a previous report with slight modifications. LNCaP cells expressing PSMA were cultured in RPMI 1640 medium containing 10% fetal bovine serum (FBS) and 1% penicillin–streptomycin on 6-well culture plates (containing 5 × 10^5 cells/well) for 24 h in a humidified atmosphere (5% CO2) incubator at 37 °C. After removing the medium and washing with phosphate-buffered saline (PBS) (−) once, a mixed solution of [^125I]5 and [^211At]6, [^125I]5 and [^67Ga]Ga-PSMA-617, and [^125I]5 and [^67Ga]5 in 1.0 mL of medium without FBS was added (3.7 kBq/each tracer/well). The final concentrations of the radioligands for [^125I]5, [^211At]6, and [^67Ga]5 were 45.5 pM, 0.2 pM, and 2.5 pM, respectively. These solutions containing radioligands were diluted in saline containing 0.05% (w/v) bovine serum albumin (BSA) to prevent adsorption to tubes or plates and further diluted with medium to 0.00125% as the final BSA concentration. After incubation for 10, 60, and 120 min, the medium from each well was removed, and the cells were washed twice with ice-cold PBS (−); the surface of the cells was washed twice with ice-cold 0.2 M glycine buffer (pH 3.0). The cells were lysed using a 1 M NaOH aqueous solution. The radioactivity of ^67Ga,^125I and ^211At in the 1 M NaOH aqueous solution was determined and defined as the internalized radioligand fraction using an auto well gamma counter (ARC-8001, Hitachi, Ltd., Tokyo, Japan) according to a previous paper. The radioactivity was determined with an auto well gamma counter and corrected for background radiation and physical decay during counting. A window from 16 to 69 keV was used for counting ^125I, and a window from 70 to 120 keV was used for counting ^211At. Correlation factors to eliminate any crossover of ^125I activity in the ^211At counts were determined by measuring the ^125I standard in each window. More than one week after the experiments, the radioactivity counts of ^125I were measured after the decay of ^211At. The protein amount in cells was quantified using a BCA Protein Assay Kit (Nacalai Tesque, Kyoto, Japan) according to the manufacturer’s protocol. All data were expressed as percent dose per milligram protein (%dose/mg protein). In blocking experiments, a selective inhibitor of the PSMA, (2S)-2-(phosphonomethyl)pentanedioic acid (2-PMPA) (final concentration 100 µM), was added to each well with tracers. After incubation for 10, 60, and 120 min, radioactivity and protein concentration were determined in the same manner as the experiment without the blocking agent.

With `O=C([O-])CN1CCN(CC(=O)[O-])CCN(CC(=O)NC(CCCCNC(=O)CCCc2ccc([125I])cc2)C(=O)NCC2CCC(C(=O)NC(Cc3ccc4ccccc4c3)C(=O)NCCCCC(NC(=O)NC(CCC(=O)O)C(=O)O)C(=O)O)CC2)CCN(CC(=O)[O-])CC1.[Ga+3]` (stereo not shown) [[^125I]5] the “Effect of IPBA administration on radioactivity levels in tissues” value [1] was “significantly decreased”, the Excretion in feces ([2]; 24 h postinjection) was 2.3 ± 0.3 %ID and the Excretion in urine ([2]; 24 h postinjection) was 10.3 ± 0.7 %ID. For the same compound, the Blood retention ([2]; compared with [67Ga]Ga-PSMA-617) was “significantly prolonged blood retention”, the “Biodistribution of radioactivity: Blood” value ([2]; 10 min after injection) was 26.76 (0.56) % injected dose per gram and the “Biodistribution of radioactivity: Bone” value ([2]; 10 min after injection) was 2.56 (0.45) % injected dose per gram. For the same compound, the “Biodistribution of radioactivity: Brain” value ([2]; 10 min after injection) was 0.66 (0.14) % injected dose per gram, the “Biodistribution of radioactivity: Heart” value ([2]; 10 min after injection) was 4.87 (0.63) % injected dose per gram and the “Biodistribution of radioactivity: Kidney” value ([2]; 10 min after injection) was 10.29 (0.97) % injected dose per gram. For the same compound, the “Biodistribution of radioactivity: L. Intestine” value (shortened to “Biodistribution … L. Intestine”) ([2]; 10 min after injection) was 1.10 (0.07) % injected dose per gram, the “Biodistribution of radioactivity: Liver” value ([2]; 10 min after injection) was 3.89 (0.34) % injected dose per gram and the “Biodistribution of radioactivity: Lung” value ([2]; 10 min after injection) was 10.56 (0.97) % injected dose per gram. The “Biodistribution of radioactivity: Muscle” value ([2]; 10 min after injection) was 0.89 (0.02) % injected dose per gram, the “Biodistribution of radioactivity: Neck” value ([2]; 10 min after injection) was 0.04 (0.01) % injected dose and the “Biodistribution of radioactivity: Pancreas” value (shortened to “Biodistribution … Pancreas”) ([2]; 10 min after injection) was 3.05 (0.20) % injected dose per gram. The “Biodistribution of radioactivity: S. Intestine” value (shortened to “Biodistribution … S. Intestine”) ([2]; 10 min after injection) was 2.11 (0.10) % injected dose per gram, the “Biodistribution of radioactivity: Spleen” value ([2]; 10 min after injection) was 3.22 (0.38) % injected dose per gram and the “Biodistribution of radioactivity: Stomach” value (shortened to “Biodistribution … Stomach”) ([2]; 10 min after injection) was 0.78 (0.10) % injected dose. The “Biodistribution of radioactivity: Blood” value ([2]; 1 h after injection) was 16.99 (1.80) % injected dose per gram, the “Biodistribution of radioactivity: Bone” value ([2]; 1 h after injection) was 2.18 (0.26) % injected dose per gram and the “Biodistribution of radioactivity: Brain” value ([2]; 1 h after injection) was 0.44 (0.19) % injected dose per gram. For the same compound, the “Biodistribution of radioactivity: Heart” value ([2]; 1 h after injection) was 4.00 (0.35) % injected dose per gram, the “Biodistribution of radioactivity: Kidney” value ([2]; 1 h after injection) was 6.22 (0.27) % injected dose per gram and the “Biodistribution … L. Intestine” value ([2]; 1 h after injection) was 1.16 (0.18) % injected dose per gram. For the same compound, the “Biodistribution of radioactivity: Liver” value ([2]; 1 h after injection) was 2.67 (0.11) % injected dose per gram, the “Biodistribution of radioactivity: Lung” value ([2]; 1 h after injection) was 9.59 (2.25) % injected dose per gram and the “Biodistribution of radioactivity: Muscle” value ([2]; 1 h after injection) was 1.06 (0.06) % injected dose per gram. For the same compound, the “Biodistribution of radioactivity: Neck” value ([2]; 1 h after injection) was 0.03 (0.01) % injected dose, the “Biodistribution … Pancreas” value ([2]; 1 h after injection) was 2.30 (0.22) % injected dose per gram and the “Biodistribution … S. Intestine” value ([2]; 1 h after injection) was 2.02 (0.21) % injected dose per gram. For the same compound, the “Biodistribution of radioactivity: Spleen” value ([2]; 1 h after injection) was 2.01 (0.29) % injected dose per gram, the “Biodistribution … Stomach” value ([2]; 1 h after injection) was 0.75 (0.08) % injected dose and the “Biodistribution of radioactivity: Blood” value ([2]; 4 h after injection) was 14.52 (0.22) % injected dose per gram. For the same compound, the “Biodistribution of radioactivity: Bone” value ([2]; 4 h after injection) was 1.57 (0.64) % injected dose per gram, the “Biodistribution of radioactivity: Brain” value ([2]; 4 h after injection) was 0.30 (0.03) % injected dose per gram and the “Biodistribution of radioactivity: Heart” value ([2]; 4 h after injection) was 3.97 (0.22) % injected dose per gram. The “Biodistribution of radioactivity: Kidney” value ([2]; 4 h after injection) was 6.93 (0.24) % injected dose per gram, the “Biodistribution … L. Intestine” value ([2]; 4 h after injection) was 2.03 (0.07) % injected dose per gram and the “Biodistribution of radioactivity: Liver” value ([2]; 4 h after injection) was 2.76 (0.11) % injected dose per gram. For the same compound, the “Biodistribution of radioactivity: Lung” value ([2]; 4 h after injection) was 8.37 (0.62) % injected dose per gram, the “Biodistribution of radioactivity: Muscle” value ([2]; 4 h after injection) was 1.41 (0.07) % injected dose per gram and the “Biodistribution of radioactivity: Neck” value ([2]; 4 h after injection) was 0.03 (0.00) % injected dose. The “Biodistribution … Pancreas” value ([2]; 4 h after injection) was 2.33 (0.13) % injected dose per gram, the “Biodistribution … S. Intestine” value ([2]; 4 h after injection) was 1.99 (0.14) % injected dose per gram and the “Biodistribution of radioactivity: Spleen” value ([2]; 4 h after injection) was 1.59 (0.35) % injected dose per gram. For the same compound, the “Biodistribution … Stomach” value ([2]; 4 h after injection) was 0.69 (0.08) % injected dose, the “Biodistribution of radioactivity: Blood” value ([2]; 24 h after injection) was 9.84 (0.85) % injected dose per gram and the “Biodistribution of radioactivity: Bone” value ([2]; 24 h after injection) was 1.57 (0.22) % injected dose per gram. The “Biodistribution of radioactivity: Brain” value ([2]; 24 h after injection) was 0.30 (0.03) % injected dose per gram, the “Biodistribution of radioactivity: Heart” value ([2]; 24 h after injection) was 2.85 (0.36) % injected dose per gram and the “Biodistribution of radioactivity: Kidney” value ([2]; 24 h after injection) was 7.37 (0.99) % injected dose per gram. The “Biodistribution … L. Intestine” value ([2]; 24 h after injection) was 1.15 (0.35) % injected dose per gram, the “Biodistribution of radioactivity: Liver” value ([2]; 24 h after injection) was 1.59 (0.34) % injected dose per gram and the “Biodistribution of radioactivity: Lung” value ([2]; 24 h after injection) was 6.18 (0.83) % injected dose per gram. The “Biodistribution of radioactivity: Muscle” value ([2]; 24 h after injection) was 1.08 (0.11) % injected dose per gram, the “Biodistribution of radioactivity: Neck” value ([2]; 24 h after injection) was 0.02 (0.00) % injected dose and the “Biodistribution … Pancreas” value ([2]; 24 h after injection) was 1.66 (0.46) % injected dose per gram. For the same compound, the “Biodistribution … S. Intestine” value ([2]; 24 h after injection) was 1.11 (0.31) % injected dose per gram, the “Biodistribution of radioactivity: Spleen” value ([2]; 24 h after injection) was 1.62 (0.16) % injected dose per gram and the “Biodistribution … Stomach” value ([2]; 24 h after injection) was 0.67 (0.13) % injected dose. For the same compound, the “Effect of excess 2-PMPA on cellular uptake” value [3] was “significantly reduced”.
